Results: patent US7799821B2, “Therapeutic compounds” (Allergan, Inc., priority 2004, dated 2010)
Each block holds one molecule with its values, some of them ahead of it.

Experiments:
hFP = molecular target: T1, hFP (Homo sapiens, UniProt P43088); assay: FLIPR calcium signal, hFP; assay type: cell-based; settings: Table 3, third part
T1 construct: expressed in transfected cells; host or cells: HEK-293(EBNA)
Experimental: (§1) HEK-293(EBNA) cells, stably expressing one type or subtype of recombinant human prostaglandin receptors (prostaglandin receptors expressed: hDP/Gqs5; hEP1; hEP2/Gqs5; hEP3A/Gqi5; hEP4/Gqs5; hFP; hIP; hTP), were cultured in 100 mm culture dishes in high-glucose DMEM medium containing 10% fetal bovine serum, 2 mM 1-glutamine, 250 μg/ml geneticin (G418) and 200 μg/ml hygromycin B as selection markers, and 100 units/ml penicillin G, 100 μg/ml streptomycin and 0.25 μg/ml amphotericin B. • (b) Calcium Signal Studies on the FLIPR™
(§2) Cells were seeded at a density of 5×10^4 cells per well in Biocoat® Poly-D-lysine-coated black-wall, clear-bottom 96-well plates (Becton-Dickinson) and allowed to attach overnight in an incubator at 37° C. Cells were then washed two times with HBSS-HEPES buffer (Hanks Balanced Salt Solution without bicarbonate and phenol red, 20 mM HEPES, pH 7.4) using a Denley Cellwash plate washer (Labsystems). After 45 minutes of dye-loading in the dark, using the calcium-sensitive dye Fluo-4 AM at a final concentration of 2 μM, plates were washed four times with HBSS-HEPES buffer to remove excess dye leaving 100 μl in each well. Plates were re-equilibrated to 37° C. for a few minutes.
(§3) Cells were excited with an Argon laser at 488 nm, and emission was measured through a 510-570 nm bandwidth emission filter (FLIPR™, Molecular Devices, Sunnyvale, Calif.). Drug solution was added in a 50 μl volume to each well to give the desired final concentration. The peak increase in fluorescence intensity was recorded for each well. On each plate, four wells each served as negative (HBSS-HEPES buffer) and positive controls (standard agonists: BW245C (hDP); PGE2 (hEP1; hEP2/Gqs5; hEP3A/Gqi5; hEP4/Gqs5); PGF2α (hFP); carbacyclin (hIP); U-46619 (hTP), depending on receptor). The peak fluorescence change in each drug-containing well was then expressed relative to the controls.
Compounds were tested in a high-throughput (HTS) or concentration-response (CoRe) format. […]

hEP1 = molecular target: T2, hEP1 (Homo sapiens, UniProt P34995); assay: FLIPR calcium signal, hEP1; assay type: cell-based; settings: Table 3, third part
T2 construct: expressed in transfected cells; host or cells: HEK-293(EBNA)
T2 sequence (P34995 1-402): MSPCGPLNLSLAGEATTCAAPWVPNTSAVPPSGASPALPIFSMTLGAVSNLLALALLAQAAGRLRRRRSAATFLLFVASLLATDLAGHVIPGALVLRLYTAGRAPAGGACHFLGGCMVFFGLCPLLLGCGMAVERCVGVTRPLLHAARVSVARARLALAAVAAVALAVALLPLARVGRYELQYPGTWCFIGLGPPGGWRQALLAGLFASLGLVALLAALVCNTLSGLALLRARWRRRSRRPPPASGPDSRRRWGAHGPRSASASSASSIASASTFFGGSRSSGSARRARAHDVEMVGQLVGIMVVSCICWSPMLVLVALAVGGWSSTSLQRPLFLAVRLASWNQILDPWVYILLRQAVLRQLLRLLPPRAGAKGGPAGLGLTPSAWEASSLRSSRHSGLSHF
Experimental: as §1, §2, §3
(§4) Compounds were tested in a high-throughput (HTS) or concentration-response (CoRe) format. In the HTS format, forty-four compounds per plate were examined in duplicates at a concentration of 10^−5 M. To generate concentration-response curves, four compounds per plate were tested in duplicates in a concentration range between 10^−5 and 10^−11 M. The duplicate values were averaged. In either, HTS or CoRe format each compound was tested on at least 3 separate plates using cells from different passages to give an n≧3.

hEP4/Gqs5 = molecular target: T3, hEP4/Gqs5 (Homo sapiens, UniProt P35408); assay: FLIPR calcium signal, hEP4; assay type: cell-based; settings: Table 3, third part
T3 construct: expressed in transfected cells; host or cells: HEK-293(EBNA)
Summary of the method: (§5)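 HEK-293(EBNA) cells stably expressing each human prostanoid receptor (EP2 and EP3A coupled via Gqs5/Gqi5 chimeras) were loaded with Fluo-4 AM, and peak calcium fluorescence was measured on FLIPR at 37° C. Compounds were tested at 10^−5 M or from 10^−11 to 10^−5 M in duplicate, n≥3, with response expressed relative to buffer and standard agonist controls.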

hTP = molecular target: T4, hTP (Homo sapiens, UniProt P21731); assay: FLIPR calcium signal, hTP; assay type: cell-based; settings: Table 3, third part
T4 construct: expressed in transfected cells; host or cells: HEK-293(EBNA)
T4 sequence (P21731 1-343): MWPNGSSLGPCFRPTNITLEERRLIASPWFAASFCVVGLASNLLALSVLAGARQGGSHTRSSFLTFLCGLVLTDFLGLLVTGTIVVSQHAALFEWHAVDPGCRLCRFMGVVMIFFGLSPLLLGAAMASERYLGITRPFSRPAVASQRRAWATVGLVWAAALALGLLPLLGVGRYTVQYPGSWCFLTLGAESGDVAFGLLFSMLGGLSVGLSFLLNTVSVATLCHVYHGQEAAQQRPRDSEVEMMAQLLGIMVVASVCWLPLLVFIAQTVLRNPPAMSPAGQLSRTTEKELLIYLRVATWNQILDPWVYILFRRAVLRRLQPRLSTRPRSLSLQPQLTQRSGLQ
Experimental: as §1, §2, §3, §4

hIP = molecular target: T5, hIP (Homo sapiens, UniProt P43119); assay: FLIPR calcium signal, hIP; assay type: cell-based; settings: Table 3, third part
T5 construct: expressed in transfected cells; host or cells: HEK-293(EBNA)
Experimental: as §1, §2, §3, §4

Beagle dogs [1] = assay: Ocular surface hyperemia, dogs; assay type: in vivo; settings: score
Experimental: (§6) Ocular surface hyperemia was visually assessed and scored according to a system typically used clinically.
(§7) Ocular surface hyperemia was evaluated at the same time points as intraocular pressure measurement. It should be noted that untreated dog eyes frequently have a pink/red tone. Thus, values of trace or even mild are not necessarily out of the normal range. Similar tests were used to determine ocular surface hyperemia on monkeys and rabbits.

monkeys = assay: Intraocular pressure (IOP) in monkeys; assay type: in vivo; settings: Conc. 0.10% (0.1%) g/100 mL
HEP3 = molecular target: T6, HEP3 (Homo sapiens, UniProt P43115); assay: Radioligand binding, EP3; settings: printed in the HEP3 binding column; read-out: Ki (marked "Ki" in BINDING HEP3)
T6 sequence (P43115 1-390): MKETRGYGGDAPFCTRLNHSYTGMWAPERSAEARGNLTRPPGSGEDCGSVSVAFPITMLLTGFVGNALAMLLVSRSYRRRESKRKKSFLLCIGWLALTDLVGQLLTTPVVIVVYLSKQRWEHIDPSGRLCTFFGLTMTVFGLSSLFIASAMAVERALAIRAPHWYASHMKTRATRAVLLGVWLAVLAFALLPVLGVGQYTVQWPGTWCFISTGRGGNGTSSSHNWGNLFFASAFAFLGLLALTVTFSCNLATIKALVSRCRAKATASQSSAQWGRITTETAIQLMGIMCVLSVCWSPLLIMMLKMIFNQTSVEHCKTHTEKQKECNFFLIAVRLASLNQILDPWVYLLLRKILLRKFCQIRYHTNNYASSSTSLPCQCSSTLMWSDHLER

hEP2/Gqs5 = molecular target: T7, hEP2/Gqs5 (Homo sapiens, UniProt P43116); assay: FLIPR calcium signal, hEP2; assay type: cell-based; settings: FLIPR Ca2+ signal, HEK-293(EBNA); read-out: FUNCTIONAL EC50 HEP2
T7 construct: expressed in transfected cells; host or cells: HEK-293(EBNA)
Summary of the method: as §5

Beagle dogs [2] = assay: Intraocular pressure (IOP) in dogs, pneumatonometry; assay type: in vivo; settings: topical
Experimental: (§8) Intraocular pressure studies in dogs involved pneumatonometry performed in conscious, Beagle dogs of both sexes (10-15 kg). The animals remained conscious throughout the study and were gently restrained by hand. Drugs were administered topically to one eye as a 25 μL volume drop, the other eye received 25 μL vehicle (0.1% (w/v) polysorbate 80; 10 mM TRIS) as a control. Proparacaine (0.1% w/v) was used for corneal anesthesia during tonometry. Intraocular pressure was determined just before drug administration and at 2, 4 and 6 hr thereafter on each day of the 5 day study. Drug was administered immediately after the first IOP reading.
as §8, with “(0.1%” for “(0.1% (w/v)”, “80:10” for “80; 10”, “(0.1%)” for “(0.1% w/v)”

rabbits = assay: Ocular surface hyperemia, rabbits; assay type: in vivo; settings: Conc. 0.10% (0.1%) g/100 mL, score
Experimental: as §6, §7

T7 sequence (P43116 whole entry): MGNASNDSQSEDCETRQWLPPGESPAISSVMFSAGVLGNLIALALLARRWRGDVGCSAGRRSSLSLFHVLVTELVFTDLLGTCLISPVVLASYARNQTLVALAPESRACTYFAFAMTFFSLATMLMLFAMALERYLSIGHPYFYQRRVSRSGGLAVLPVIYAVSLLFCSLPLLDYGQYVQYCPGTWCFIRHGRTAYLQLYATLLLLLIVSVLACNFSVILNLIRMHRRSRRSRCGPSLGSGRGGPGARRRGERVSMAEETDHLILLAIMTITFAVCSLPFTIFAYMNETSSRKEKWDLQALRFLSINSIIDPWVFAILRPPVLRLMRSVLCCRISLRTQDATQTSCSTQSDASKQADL
T1 sequence (P43088 whole entry): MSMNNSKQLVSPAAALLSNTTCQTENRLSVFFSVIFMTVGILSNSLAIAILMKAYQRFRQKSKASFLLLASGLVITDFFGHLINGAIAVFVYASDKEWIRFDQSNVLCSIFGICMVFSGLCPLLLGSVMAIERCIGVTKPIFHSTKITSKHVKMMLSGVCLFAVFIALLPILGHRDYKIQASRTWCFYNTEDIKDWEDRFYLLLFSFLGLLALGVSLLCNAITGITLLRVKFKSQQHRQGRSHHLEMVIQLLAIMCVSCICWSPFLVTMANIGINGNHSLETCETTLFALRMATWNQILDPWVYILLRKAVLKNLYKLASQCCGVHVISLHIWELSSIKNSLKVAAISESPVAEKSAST
T3 sequence (P35408 whole entry): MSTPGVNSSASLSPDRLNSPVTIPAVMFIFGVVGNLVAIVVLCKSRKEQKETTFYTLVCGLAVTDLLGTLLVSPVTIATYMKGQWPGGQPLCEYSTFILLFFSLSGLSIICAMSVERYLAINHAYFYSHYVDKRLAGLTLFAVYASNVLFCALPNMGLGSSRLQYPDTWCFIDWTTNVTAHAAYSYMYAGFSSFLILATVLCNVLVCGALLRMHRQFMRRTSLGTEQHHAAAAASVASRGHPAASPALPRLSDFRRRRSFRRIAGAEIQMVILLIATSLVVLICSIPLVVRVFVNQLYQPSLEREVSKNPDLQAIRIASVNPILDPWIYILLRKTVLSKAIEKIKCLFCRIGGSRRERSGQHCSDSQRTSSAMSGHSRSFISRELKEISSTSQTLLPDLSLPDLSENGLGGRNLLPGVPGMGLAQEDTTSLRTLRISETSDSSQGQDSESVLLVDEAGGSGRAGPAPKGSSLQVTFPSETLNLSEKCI
T5 sequence (P43119 whole entry): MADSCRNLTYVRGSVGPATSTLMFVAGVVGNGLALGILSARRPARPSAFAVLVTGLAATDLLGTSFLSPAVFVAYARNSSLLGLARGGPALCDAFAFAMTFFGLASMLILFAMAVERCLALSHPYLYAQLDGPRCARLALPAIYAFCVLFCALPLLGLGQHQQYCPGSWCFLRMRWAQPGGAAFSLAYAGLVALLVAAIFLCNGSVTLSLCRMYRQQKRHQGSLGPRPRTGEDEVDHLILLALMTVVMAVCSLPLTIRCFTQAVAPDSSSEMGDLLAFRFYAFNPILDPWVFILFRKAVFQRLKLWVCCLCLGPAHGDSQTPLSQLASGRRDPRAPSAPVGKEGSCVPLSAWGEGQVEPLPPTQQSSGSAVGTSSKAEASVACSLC

- Ca2+ Signal-EC50 (nM) FP (hFP): not active
- Ca2+ Signal-EC50 (nM) EP1 (hEP1): not active
- Ca2+ Signal-EC50 (nM) EP4 (hEP4/Gqs5): not active
- Ca2+ Signal-EC50 (nM) TP (hTP): not active
- Ca2+ Signal-EC50 (nM) IP (hIP): not active
Compound: CCCCCC(O)c1ccc([C@@H]2[C@@H](C/C=C\CCCC(=O)O)[C@H](Cl)C[C@H]2Cl)cc1 (stereo partly drawn)

- DOG Max. hyperemia (Beagle dogs [1]; Conc. 0.10% (0.1%) g/100 mL): 2.0
Compound: CCCCCC(=O)c1ccc([C@@H]2[C@@H](C/C=C\CCCC(=O)O)[C@H](Cl)C[C@H]2O)cc1
- MONKEY Max. ΔIOP (mm Hg) (monkeys): 31 mm Hg

- Ki (HEP3): 1340 nM
- EC50 (hEP2/Gqs5): 497 nM
Compound: CC(C)C(O)c1ccc([C@@H]2[C@@H](C/C=C\CCCC(=O)O)[C@H](Cl)C[C@H]2O)cc1 (stereo partly drawn)

More lines, now with the values behind:

Compound: CC(C)OC(=O)CCC/C=C\C[C@@H]1[C@@H](c2ccc3c(c2)CCC3O)[C@H](O)C[C@H]1Cl (stereo partly drawn)
- DOG Max. ΔIOP (mm Hg) (Beagle dogs [2]; Conc. 0.10% (0.1%) g/100 mL): −12 mm Hg
- RABBIT Max. hyperemia (rabbits): 0.25

Compound: CC(C)C(O)c1ccc([C@@H]2[C@@H](CCCCCCC(=O)O)[C@H](Cl)C[C@H]2O)cc1 (stereo partly drawn)
- Ki (HEP3): 3020 nM
- EC50 (hEP2/Gqs5): > 10000 nM

Compound: CCCCCC(=O)c1ccc([C@@H]2[C@@H](C/C=C\CCCC(=O)OC(C)C)[C@H](Cl)C[C@H]2O)cc1
- DOG Max. hyperemia (Beagle dogs [1]; Conc. 0.10% (0.1%) g/100 mL): 0.8
- RABBIT Max. hyperemia (rabbits): 0
- MONKEY Max. ΔIOP (mm Hg) (monkeys): 20 mm Hg

Compound: CC(C)(CO)c1ccc([C@@H]2[C@@H](C/C=C\CCCC(=O)O)[C@H](Cl)C[C@H]2O)cc1 [drawing 243]
- DOG Max. ΔIOP (mm Hg) (Beagle dogs [2]; Conc. 0.30% g/100 mL): −8 mm Hg
- DOG Max. hyperemia (Beagle dogs [1]; Conc. 0.30% g/100 mL): 0.9
